Reference: PMC9127186, “Molecular Basis Underlying Hepatobiliary and Renal Excretion of Phenolic Acids of Salvia miltiorrhiza Roots (Danshen)” (Frontiers in Pharmacology, 2022)

Tests used:
rat Ntcp = biological target: T1, rat Ntcp (Rattus norvegicus, UniProt P26435); conditions: 10 min, 100 μM
T1 sequence (P26435 1-362): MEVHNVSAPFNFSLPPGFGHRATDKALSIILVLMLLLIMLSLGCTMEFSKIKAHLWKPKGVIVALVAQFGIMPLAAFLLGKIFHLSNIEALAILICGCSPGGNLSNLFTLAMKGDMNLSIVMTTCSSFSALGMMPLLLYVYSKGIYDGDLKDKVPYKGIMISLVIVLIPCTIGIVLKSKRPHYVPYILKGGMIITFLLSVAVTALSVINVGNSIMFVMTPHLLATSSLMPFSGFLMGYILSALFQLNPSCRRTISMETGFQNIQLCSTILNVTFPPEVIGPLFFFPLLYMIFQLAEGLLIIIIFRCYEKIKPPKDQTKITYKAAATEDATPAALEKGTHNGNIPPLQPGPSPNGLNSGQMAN

human OCT2 = biological target: T2, human OCT2 (Homo sapiens, UniProt O15244); conditions: 10 min, 100 μM
T2 sequence (O15244 1-555): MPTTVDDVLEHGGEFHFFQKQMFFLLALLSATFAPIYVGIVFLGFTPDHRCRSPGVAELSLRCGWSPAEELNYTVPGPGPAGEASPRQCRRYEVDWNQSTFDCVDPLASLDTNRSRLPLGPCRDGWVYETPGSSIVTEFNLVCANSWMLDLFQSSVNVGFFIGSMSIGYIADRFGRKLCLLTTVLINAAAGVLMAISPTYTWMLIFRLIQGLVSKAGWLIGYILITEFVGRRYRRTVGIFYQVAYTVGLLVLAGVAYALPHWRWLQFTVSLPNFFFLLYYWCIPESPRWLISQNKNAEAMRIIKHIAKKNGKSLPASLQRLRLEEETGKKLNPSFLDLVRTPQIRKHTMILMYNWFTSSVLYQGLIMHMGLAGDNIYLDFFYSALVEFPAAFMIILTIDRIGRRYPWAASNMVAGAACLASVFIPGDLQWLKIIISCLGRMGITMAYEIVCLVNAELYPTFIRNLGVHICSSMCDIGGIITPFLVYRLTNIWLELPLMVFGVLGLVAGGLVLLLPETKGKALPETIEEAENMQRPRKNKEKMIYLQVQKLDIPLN

rat Oct2 = biological target: T3, rat Oct2 (Rattus norvegicus, UniProt Q9R0W2); conditions: 10 min, 100 μM
T3 sequence (Q9R0W2 1-555): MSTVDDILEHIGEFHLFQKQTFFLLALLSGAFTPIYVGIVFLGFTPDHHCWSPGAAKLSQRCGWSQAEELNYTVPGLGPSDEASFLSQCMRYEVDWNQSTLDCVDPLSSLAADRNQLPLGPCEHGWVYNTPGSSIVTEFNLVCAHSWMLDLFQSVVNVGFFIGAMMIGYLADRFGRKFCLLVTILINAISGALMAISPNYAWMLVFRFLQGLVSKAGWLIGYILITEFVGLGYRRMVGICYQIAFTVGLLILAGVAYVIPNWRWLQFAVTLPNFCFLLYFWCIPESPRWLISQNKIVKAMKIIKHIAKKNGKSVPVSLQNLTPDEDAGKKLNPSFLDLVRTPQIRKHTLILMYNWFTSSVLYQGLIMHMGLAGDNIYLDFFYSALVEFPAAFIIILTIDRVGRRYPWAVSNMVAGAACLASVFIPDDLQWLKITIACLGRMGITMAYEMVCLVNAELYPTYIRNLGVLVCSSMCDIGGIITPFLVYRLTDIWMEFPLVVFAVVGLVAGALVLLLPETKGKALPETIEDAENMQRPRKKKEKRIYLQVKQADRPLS

rat Oct3 = biological target: T4, rat Oct3 (Rattus norvegicus, UniProt O88446)
T4 sequence (O88446 1-551): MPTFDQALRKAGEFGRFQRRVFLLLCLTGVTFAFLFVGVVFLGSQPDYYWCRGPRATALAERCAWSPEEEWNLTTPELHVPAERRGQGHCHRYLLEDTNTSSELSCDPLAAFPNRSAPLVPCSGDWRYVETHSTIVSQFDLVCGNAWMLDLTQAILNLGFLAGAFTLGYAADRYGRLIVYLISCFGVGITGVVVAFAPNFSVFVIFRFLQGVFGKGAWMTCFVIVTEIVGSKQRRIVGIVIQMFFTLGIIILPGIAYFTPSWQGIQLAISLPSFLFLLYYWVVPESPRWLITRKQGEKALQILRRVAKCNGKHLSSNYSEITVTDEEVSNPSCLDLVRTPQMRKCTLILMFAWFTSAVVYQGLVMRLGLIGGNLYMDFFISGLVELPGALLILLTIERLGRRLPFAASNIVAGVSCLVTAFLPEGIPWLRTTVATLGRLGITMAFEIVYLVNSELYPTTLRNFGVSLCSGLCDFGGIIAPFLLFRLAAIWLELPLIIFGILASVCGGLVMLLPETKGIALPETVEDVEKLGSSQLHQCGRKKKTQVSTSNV

human OATP1B1 = biological target: T5, human OATP1B1 (Homo sapiens, UniProt Q9Y6L6); design: method as in Cao et al. (2019); conditions: ref Cao et al. (2019); cited from earlier work
T5 sequence (Q9Y6L6 1-691): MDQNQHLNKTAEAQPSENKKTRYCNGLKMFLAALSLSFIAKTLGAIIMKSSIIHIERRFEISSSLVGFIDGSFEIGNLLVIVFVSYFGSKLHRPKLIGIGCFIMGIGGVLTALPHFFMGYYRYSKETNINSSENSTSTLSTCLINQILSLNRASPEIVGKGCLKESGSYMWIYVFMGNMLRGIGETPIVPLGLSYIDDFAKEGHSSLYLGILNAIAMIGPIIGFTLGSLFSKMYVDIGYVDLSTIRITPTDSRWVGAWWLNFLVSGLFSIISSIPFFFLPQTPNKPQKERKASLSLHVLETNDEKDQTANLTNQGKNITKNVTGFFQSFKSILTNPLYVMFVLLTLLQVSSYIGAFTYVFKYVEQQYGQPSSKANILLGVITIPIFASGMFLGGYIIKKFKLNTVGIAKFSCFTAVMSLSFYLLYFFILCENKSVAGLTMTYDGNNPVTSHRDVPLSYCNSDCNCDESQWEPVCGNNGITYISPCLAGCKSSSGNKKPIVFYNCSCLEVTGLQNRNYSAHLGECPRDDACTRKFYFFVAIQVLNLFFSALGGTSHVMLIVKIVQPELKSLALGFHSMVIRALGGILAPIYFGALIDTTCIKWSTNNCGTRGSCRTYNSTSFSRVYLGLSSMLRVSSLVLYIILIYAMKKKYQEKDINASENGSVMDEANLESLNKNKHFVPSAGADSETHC

Molecule	TransportTC/TransportMC ratio (net transport ratio) (rat Ntcp)	TransportTC/TransportMC ratio (net transport ratio) (human OCT2)	TransportTC/TransportMC ratio (net transport ratio) (rat Oct2)	TransportTC/TransportMC ratio (net transport ratio) (rat Oct3)	substrate of human OATP1B1 (human OATP1B1)
O=C(/C=C/c1ccc(O)c(O)c1)O[C@H](Cc1ccc(O)c(O)c1)C(=O)O [Rosmarinic acid, rosmarinic acid]	1.68 ± 0.25	0.85 ± 0.29	0.75 ± 0.32	–	–
O=C(/C=C/c1ccc(O)c(O)c1/C=C/c1ccc(O)c(O)c1)O[C@H](Cc1ccc(O)c(O)c1)C(=O)O [Salvianolic acid A, salvianolic acid A]	0.84 ± 0.13	0.93 ± 0.32	0.94 ± 0.33	1.19 ± 0.14	–
salvianolic acid B	–	–	–	–	substrate
